In ChEMBL document CHEMBL4425081, “Design and Development of Microsomal Prostaglandin E2 Synthase-1 Inhibitors: Challenges and Future Directions” (J Med Chem, 2016):

What was measured:
[1] = molecular target: T1, Prostaglandin G/H synthase 1 (Ovis aries, UniProt P05979); assay: Inhibition of ovine COX-1 assessed as 12-HHT formation preincubated for 5 mins followed by addition of arachidonic acid as substrate measured after 5 mins by HPLC analysis
T1 sequence (P05979 whole entry): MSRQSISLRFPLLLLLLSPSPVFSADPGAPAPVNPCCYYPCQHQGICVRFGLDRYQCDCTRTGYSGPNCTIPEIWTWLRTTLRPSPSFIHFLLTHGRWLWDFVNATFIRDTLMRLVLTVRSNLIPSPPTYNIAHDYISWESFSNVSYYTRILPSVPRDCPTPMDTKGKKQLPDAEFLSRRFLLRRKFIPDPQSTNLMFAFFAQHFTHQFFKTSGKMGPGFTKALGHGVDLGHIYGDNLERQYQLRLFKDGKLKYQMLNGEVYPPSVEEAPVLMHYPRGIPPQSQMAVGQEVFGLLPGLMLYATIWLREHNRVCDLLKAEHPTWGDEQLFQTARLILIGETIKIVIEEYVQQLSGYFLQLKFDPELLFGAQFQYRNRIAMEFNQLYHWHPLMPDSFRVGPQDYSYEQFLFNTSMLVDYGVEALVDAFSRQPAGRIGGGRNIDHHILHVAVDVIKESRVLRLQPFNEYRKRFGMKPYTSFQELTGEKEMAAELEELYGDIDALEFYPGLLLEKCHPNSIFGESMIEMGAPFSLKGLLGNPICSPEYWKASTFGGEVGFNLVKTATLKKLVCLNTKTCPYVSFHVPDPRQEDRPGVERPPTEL

[2] = molecular target: T2, Arachidonate 5-lipoxygenase-activating protein (Homo sapiens, UniProt P20292); assay: Antagonist activity at FLAP in human PMNC assessed as inhibition of A23187-induced LTB4 biosynthesis pre-incubated for 2 mins followed by addition of A23187 measured after 5 mins by radioimmunoassay
T2 sequence (P20292 whole entry): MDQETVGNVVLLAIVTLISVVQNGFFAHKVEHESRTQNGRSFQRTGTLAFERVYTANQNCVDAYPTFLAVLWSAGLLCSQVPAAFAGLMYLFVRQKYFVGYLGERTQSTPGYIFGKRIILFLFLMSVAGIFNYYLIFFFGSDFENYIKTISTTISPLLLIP

Prostaglandin E synthase [3] = molecular target: T3, Prostaglandin E synthase (Homo sapiens, UniProt O14684); assay: Inhibition of human mPGES-1 expressed in CHO-K1 cells using PGH2 as substrate assessed as PGE2 formation preincubated for 20 mins followed by addition of substrate measured after 60 secs by HTRF assay; assay type: cell-based
T3 sequence (O14684 whole entry): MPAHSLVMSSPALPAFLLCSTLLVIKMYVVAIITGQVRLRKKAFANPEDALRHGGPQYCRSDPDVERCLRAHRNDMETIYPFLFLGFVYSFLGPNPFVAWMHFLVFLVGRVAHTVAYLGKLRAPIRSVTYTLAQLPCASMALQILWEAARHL

Prostaglandin E synthase [4] = molecular target: T3, Prostaglandin E synthase; assay: Inhibition of mPGES-1 in human A549 cells assessed as PGE2[…] formation preincubated for 60 mins prior to IL-beta stimulation measured after 24 hrs by EIA; assay type: cell-based

Structure (SMILES): CC(C)c1ccc2c(c1)c(SC(C)(C)C)c(CC(C)(C)C(=O)O)n2Cc1ccc(Cl)cc1
- IC50 [1]: 8000 nM
- IC50 [2]: 2.5 nM

Structure (SMILES): Cn1c(Nc2cc(CNC(=O)C3(C(F)(F)F)CC3)ccc2Cl)nc2cc(C(=O)NCC3CC3)c(OCC(F)F)cc21
- IC50 (Prostaglandin E synthase [3]): 0.1 nM
- IC50 (Prostaglandin E synthase [4]): 1.2 nM
